Values joined by “and” are separate entries in the source; they are usually repeats but may differ in a detail not shown here. Equal entries are not always repeated.
Tests used:
[1] = test system: SD mice; experiment: Oral glucose tolerance test (OGTT) after consecutive administration in mice; type: in vivo, mouse; details: for Statistics of loose stools in animals / loose stools (in words): mice
Procedure: • Experimental animals: SPF male SD mice; • Compound preparation: an appropriate amount of the compound of Example 10 was weighed, and uniformly suspended with an appropriate amount of 0.5% CMC-Na solution; • Preparation of glucose solution: an appropriate amount of glucose powder was weighed and dissolved with an appropriate amount of pure water; • Administration and dosage: oral gavage; blank vehicle group, high-dose group (1.5 mg/kg), low-dose group (0.1 mg/kg). Experimental Process: • (1) The mice were fed a high-sugar diet for 6 days, and then grouped (10 mice in each group) to enter the administration stage; • (2) Example compound 10 was administered at 5:00 pm every day from day 1 to day 5, once a day, and then the animals were fed a high-sugar free diet, and the defecation of the animals was observed. • (3) On day 6, oral glucose tolerance test was performed, and glucose solution (2 g/kg) was orally administered. Blood glucose was detected before (0 min) and 10, 30, and 60 min after giving glucose solution, respectively. Experimental Results: • (1) From day 1 to day 5, the observation of animal defecation after continuous administration is summarized as follows: […]

[2] = test system: microorganisms in rat feces; experiment: Intestinal microbial metabolic stability in rat feces suspension; type: in vitro ADME; details: for Percentage of remaining compound: rat feces suspension, 37° C.
Procedure: Methods: The collected rat feces were processed, and the feces suspension was obtained for the determination of metabolic stability. The mixed reaction system consisting of the rat feces suspension and the compound of […] was incubated at 37° C. for 3 h, 6 h, 12 h and 24 h. The compound of Example 10 in the incubation system was analyzed to determine the total amount of remaining compound. Wherein, “+” represents the remaining percentage being: <50%; “++” represents the remaining percentage being: 50% to 70%; “+++” represents the remaining percentage being: 70% to 90%; “++++” means the remaining percentage being: >90%.

[3] = test system: SD rats; experiment: Oral glucose tolerance test (OGTT) after continuous administration in rats for 14 days; type: in vivo, rat
Procedure: • Experimental animals: SPF male SD rats; • Compound preparation: an appropriate amount of the compounds of Example 1, Example 2, Example 9, Example 10, and Example 17 were weighed, and uniformly suspended with an appropriate amount of 0.5% CMC-Na solution; • Preparation of glucose solution: an appropriate amount of glucose powder was weighed and dissolved with an appropriate amount of pure water; • Dosage and method of administration: 0.009 mg/kg, oral gavage.
Experimental process: the animals were fed a normal diet with consecutive administration for 14 days, and the glucose tolerance test was performed on day 15, blood glucose was detected before administration (−30 min), before giving glucose (0 min), and 10, 30, 60, and 120 min after giving glucose solution, and the defecation of animals was observed.

[4] = test system: type 2 diabetes mouse model; experiment: In vivo hypoglycemic efficacy experiment combined with sitagliptin; details: 0.01, 0.05, 0.1 mg/kg combined with 20 mg/kg of sitagliptin, STZ and high-fat high-sugar diet mice
Procedure: Model establishment: SPF grade Balb/C male mice were used in this experiment, and the establishment of the type 2 diabetes mouse model was induced by intraperitoneal injection of streptozotocin (STZ) supplemented by high-fat and high-sugar diet. • Group: 10 per group
Administration: normal group, model group, low-dose combined administration group (0.01 mg/kg of the compound of Example 10+20 mg/kg of sitagliptin), medium-dose combined administration group (0.05 mg/kg of the compound of Example 10+20 mg/kg of sitagliptin), high-dose combined administration group (0.1 mg/kg of the compound of Example 10+20 mg/kg of sitagliptin), sitagliptin group (20 mg/kg). The normal group and the model group were given the solvent by gavage.

[5] = Pharmacokinetic study in rats; type: in vivo, rat; details: 10 mg/kg, oral gavage, 0-24 hours
Procedure: 5. Pharmacokinetic Study in Rats • Experimental animals: SPF male SD rats; • Dosage and method of administration: 10 mg/kg, oral gavage. • Research compound: Dapagliflozin, the compound of Example 9, the compound of Example 10, the compound of Example 17, and the comparative compound 6;
Test method: Before administration (0), and 1, 4, 8, and 24 hours after administration, 0.2 ml of blood was collected from orbital venous plexus, anticoagulated with heparin, plasma was collected, and the blood drug concentration was determined.

## C#CCN(C)C(=O)CN(C)CCNC(=O)C(C)(C)NC(=O)CCCc1ccc(Cc2cc([C@@H]3O[C@H](SC)[C@@H](O)[C@H](O)[C@H]3O)ccc2C)cc1 [Example 10]
[1]; day 6, high (1.5 mg/kg) and low (0.1 mg/kg) dose groups, glucose 2 g/kg
  blood glucose level of mice (OGTT): significantly reduce the blood glucose level
[1]; high-dose group (1.5 mg/kg), Day 1
  Statistics of loose stools in animals: only one animal had loose stools and 1/10
[1]; high-dose group (1.5 mg/kg), Day 2
  Statistics of loose stools in animals: 0/10
[1]; high-dose group (1.5 mg/kg), Day 3
  Statistics of loose stools in animals: 0/10
[1]; high-dose group (1.5 mg/kg), Day 4
  Statistics of loose stools in animals: 0/10
[1]; high-dose group (1.5 mg/kg), Day 5
  Statistics of loose stools in animals: 0/10
[1]; high-dose group (1.5 mg/kg), day 2 to day 5
  loose stools (in words): did not have loose stools
[1]; low-dose group (0.1 mg/kg), Day 1
  Statistics of loose stools in animals: 0/10
[1]; low-dose group (0.1 mg/kg), Day 2
  Statistics of loose stools in animals: 0/10
[1]; low-dose group (0.1 mg/kg), Day 3
  Statistics of loose stools in animals: 0/10
[1]; low-dose group (0.1 mg/kg), Day 4
  Statistics of loose stools in animals: 0/10
[1]; low-dose group (0.1 mg/kg), Day 5
  Statistics of loose stools in animals: 0/10
[1]; low-dose group (0.1 mg/kg), continuous administration for 5 days
  loose stools (in words): did not have loose stools
[2]; incubated with microorganisms in rat feces for about 24 hours
  remaining compound: > 70%
[2]; incubation 3 h
  Percentage of remaining compound: ++++ (“++++” means the remaining percentage being: >90%)
[2]; incubation 6 h
  Percentage of remaining compound: +++ (“+++” represents the remaining percentage being: 70% to 90%)
[2]; incubation 12 h
  Percentage of remaining compound: +++ (“+++” represents the remaining percentage being: 70% to 90%)
[2]; incubation 24 h
  Percentage of remaining compound: +++ (“+++” represents the remaining percentage being: 70% to 90%)
[3]; 0.009 mg/kg oral gavage, 14 days, OGTT on day 15
  blood sugar level of rats (OGTT): significantly reduce the blood sugar level
[3]; rats, within 48 hours before and after the experiment
  loose stools in the experimental animals: no loose stools were observed
[4]
  blood glucose level of diabetic model animals: significantly reduce the blood glucose level
[5]
  drug concentration in plasma: did not reach the detection limit

Reference: patent publication US12612427B2, “Aryl glucoside derivative, preparation method therefor and application thereof” (Shanghai Zheye Biotechnology Co. Ltd., priority 2020, dated 2026)
